According to US11345912B2, “Directed evolution of multivalent glycopeptides that tightly bind to target proteins” (Brandeis University, priority 2013, dated 2022):

Molecular target: 2G12
Experiment: Binding curve and KD determination of 2G12-glycopeptide interaction (radiolabeled glycopeptide, protein G magnetic bead capture, scintillation counting)
Description: The resulting mRNAs were purified by denaturing PAGE or MEGAclear kit (Ambion), and 1 μM RNA was used in PURE system translation (reaction volume of translation varied). Typically, 25 μL of translated reaction was diluted with 100 μL of binding buffer (50 mM Tris-HCl, pH 7.8, 300 mM NaCl, 5 mM β-mercaptoethanol) and 25 μL of Ni-NTA agarose suspension (Qiagen), and tumbled at room temperature for 1 h. The resins were transferred to 0.22 μm spin-filter rinsing with 100 μL of bind buffer, and washed with 3×200 μL of bind buffer and 2×200 μL of wash buffer (50 mM Tris-HCl, pH 7.8, 5 mM β-mercaptoethanol). The bound peptides were eluted with 2×25 μL of 0.1% TFA. The eluted peptides were analyzed by MALDI-TOF MS, using α-Cyano-4-hydroxycinnamic acid matrix (Sigma), with or without desalting with ZipTip C18 resin (Millipore). For calibration of MALDI-TOF-MS, at least two of the following standards, bovine insulin, E. coli thioredoxin and/or horse apomyoglobin were used. To quantitate peptide yields, the radioactivities were measured by liquid scintillation counting. For the click reaction, the translated and purified peptides were mixed with 0.1% (v/v) Triton X-100, and then dialyzed against H2O containing 0.1% (v/v) Triton X-100 using Slide-A-Lyzer MINI Dialysis Devices, 3.5K MWCO (Thermo Scientific) overnight to desalt. After dialysis, the peptides were divided into two portions: one was glycosylated via the click reaction, while the other was saved as a non-glycosylated peptide control. […] The glycosylated peptide (<4 pmol) was incubated with 100 nM 2G12 in selection buffer (40 μL) at room temp. The solution was then tumbled 30 min with 0.12 mg of equilibrated Dynabeads Protein G to capture 2G12-glycopeptide complex. Beads were then washed with 3×40 μL of selection buffer and resuspended in 10 μL of selection buffer. The resuspended beads were heated at 70° C. for 30 min to denature 2G12 and elute glycopeptides, chilled on ice for 5 min, and tumbled at room temperature for 10 min. The magnetically isolated supernatant was recovered and the beads were rinsed with 10 μL of selection buffer.
Then, the solution was added to 0.12 mg of pre-equilibrated Dynabeads Protein G and tumbled at room temperature for 30 min. The supernatant was removed and the beads were washed with 3×40 μL of selection buffer. The radioactivities of the supernatant and wash solutions were measured by liquid scintillation counting as unbound fractions. […] The beads were resuspended in 40 μL of selection buffer, heated at 70° C. for 30 min to elute the bound glycopeptides, chilled on ice for 5 min, and tumbled at room temperature for 10 min. The supernatant was removed, and the beads were washed with 40 μL of selection buffer and resuspended in 40 μL of selection buffer. The radioactivities of these solutions and suspensions were measured by liquid scintillation counting separately and the values were combined as apparent bound fractions. […] All experiments were done at least in triplicate. KDs were calculated as described in the footnote of Table 4 (below).

| Structure (SMILES) | Kd (Table 4, ribosomally translated radiolabeled glycopeptide with His6/FLAG tag, room temperature, fit Fbound=(Fmax[2G12])/(KD+[2G12]), error = standard error of fit) [pM] | Fmax [%] (Table 6 mutational analysis, radioactive bead binding assay) | Kd (Table 6 mutational analysis, radioactive bead binding assay, ribosomally translated) [pM] | binding to 2G12 after truncation (in words) (truncated clones, Table 6) |
| --- | --- | --- | --- | --- |
| CC[C@H](C)[C@H](NC(=O)[C@H](CC(=O)O)NC(=O)[C@@H]1CCCN1C(=O)[C@H](C)NC(=O)[C@H](C)NC(=O)[C@H](CO)NC(=O)[C@@H](NC(=O)[C@@H]1CCCN1C(=O)[C@H](Cc1c[nH]cn1)NC(=O)[C@H](CCc1cn(C2CCC(OC3O[C@H](CO[C@H]4O[C@H](CO[C@H]5O[C@H](CO)[C@@H](O)[C@H](O)[C@@H]5O[C@H]5O[C@H](CO)[C@@H](O)[C@H](O)[C@@H]5O)[C@@H](O)[C@H](O[C@H]5O[C@H](CO)[C@@H](O)[C@H](O)[C@@H]5O[C@H]5O[C@H](CO)[C@@H](O)[C@H](O)[C@@H]5O)[C@@H]4O)[C@@H](O)[C@H](O[C@H]4O[C@H](CO)[C@@H](O)[C@H](O)[C@@H]4O[C@H]4O[C@H](CO)[C@@H](O)[C@H](O)[C@@H]4O[C@H]4O[C@H](CO)[C@@H](O)[C@H](O)[C@@H]4O)[C@@H]3O)CC2)nn1)NC(=O)[C@H](C)NC(=O)[C@H](Cc1c[nH]cn1)NC(=O)[C@H](Cc1ccccc1)NC(=O)[C@H](Cc1ccc(O)cc1)NC(=O)[C@H](Cc1c[nH]cn1)NC(=O)[C@H](C)NC(=O)[C@H](CO)NC(=O)[C@H](CCCNC(=N)N)NC(=O)[C@H](CO)NC(=O)[C@H](CC(C)C)NC(=O)[C@H](CCc1cn(C2CCC(OC3O[C@H](CO[C@H]4O[C@H](CO[C@H]5O[C@H](CO)[C@@H](O)[C@H](O)[C@@H]5O[C@H]5O[C@H](CO)[C@@H](O)[C@H](O)[C@@H]5O)[C@@H](O)[C@H](O[C@H]5O[C@H](CO)[C@@H](O)[C@H](O)[C@@H]5O[C@H]5O[C@H](CO)[C@@H](O)[C@H](O)[C@@H]5O)[C@@H]4O)[C@@H](O)[C@H](O[C@H]4O[C@H](CO)[C@@H](O)[C@H](O)[C@@H]4O[C@H]4O[C@H](CO)[C@@H](O)[C@H](O)[C@@H]4O[C@H]4O[C@H](CO)[C@@H](O)[C@H](O)[C@@H]4O)[C@@H]3O)CC2)nn1)NC(=O)[C@H](CC(C)C)NC(=O)[C@H](Cc1ccccc1)NC(=O)[C@H](C)NC(=O)[C@@H]1CCCN1C(=O)[C@H](CO)NC(=O)[C@@H]1CCCN1C(=O)[C@H](CS)NC(=O)[C@H](C)NC(=O)[C@@H](NC(=O)[C@H](CCC(N)=O)NC(=O)[C@H](CCc1cn(C2CCC(OC3O[C@H](CO[C@H]4O[C@H](CO[C@H]5O[C@H](CO)[C@@H](O)[C@H](O)[C@@H]5O[C@H]5O[C@H](CO)[C@@H](O)[C@H](O)[C@@H]5O)[C@@H](O)[C@H](O[C@H]5O[C@H](CO)[C@@H](O)[C@H](O)[C@@H]5O[C@H]5O[C@H](CO)[C@@H](O)[C@H](O)[C@@H]5O)[C@@H]4O)[C@@H](O)[C@H](O[C@H]4O[C@H](CO)[C@@H](O)[C@H](O)[C@@H]4O[C@H]4O[C@H](CO)[C@@H](O)[C@H](O)[C@@H]4O[C@H]4O[C@H](CO)[C@@H](O)[C@H](O)[C@@H]4O)[C@@H]3O)CC2)nn1)NC=O)[C@@H](C)O)[C@@H](C)O)C(=O)N[C@@H](CO)C(=O)NCC(=O)N[C@@H](CO)C(=O)NCC(=O)N[C@@H](CO)C(=O)N[C@@H](CC(C)C)C(=O)NCC(=O)N[C@@H](Cc1c[nH]cn1)C(=O)N[C@@H](Cc1c[nH]cn1)C(=O)N[C@@H](Cc1c[nH]cn1)C(=O)N[C@@H](Cc1c[nH]cn1)C(=O)N[C@@H](Cc1c[nH]cn1)C(=O)N[C@@H](Cc1c[nH]cn1)C(=O)N[C@@H](CCCNC(=N)N)C(=O)N[C@@H](CC(=O)O)C(=O)N[C@@H](Cc1ccc(O)cc1)C(=O)N[C@@H](CCCCN)C(=O)N[C@@H](CC(=O)O)C(=O)N[C@@H](CC(=O)O)C(=O)N[C@@H](CC(=O)O)C(=O)N[C@@H](CC(=O)O)C(=O)N[C@@H](CCCCN)C(=O)O (stereo partly shown) [Clone 6E, XQTACPSPAFLXLSRSAHYFHAXHPTSAAPDIS] | > 128000 | – | – | – |
| CC[C@H](C)[C@H](NC(=O)[C@H](CCCNC(=N)N)NC(=O)[C@H](Cc1c[nH]cn1)NC(=O)[C@H](Cc1ccccc1)NC(=O)[C@H](CC(C)C)NC(=O)[C@H](C)NC(=O)[C@H](CC(C)C)NC(=O)[C@H](C)NC(=O)[C@H](Cc1ccc(O)cc1)NC(=O)[C@H](CCc1cn(C2CCC(OC3O[C@H](CO[C@H]4O[C@H](CO[C@H]5O[C@H](CO)[C@@H](O)[C@H](O)[C@@H]5O[C@H]5O[C@H](CO)[C@@H](O)[C@H](O)[C@@H]5O)[C@@H](O)[C@H](O[C@H]5O[C@H](CO)[C@@H](O)[C@H](O)[C@@H]5O[C@H]5O[C@H](CO)[C@@H](O)[C@H](O)[C@@H]5O)[C@@H]4O)[C@@H](O)[C@H](O[C@H]4O[C@H](CO)[C@@H](O)[C@H](O)[C@@H]4O[C@H]4O[C@H](CO)[C@@H](O)[C@H](O)[C@@H]4O[C@H]4O[C@H](CO)[C@@H](O)[C@H](O)[C@@H]4O)[C@@H]3O)CC2)nn1)NC(=O)[C@H](CC(=O)O)NC(=O)[C@@H](NC(=O)[C@@H](NC(=O)[C@H](CCC(N)=O)NC(=O)[C@H](CCc1cn(C2CCC(OC3O[C@H](CO[C@H]4O[C@H](CO[C@H]5O[C@H](CO)[C@@H](O)[C@H](O)[C@@H]5O[C@H]5O[C@H](CO)[C@@H](O)[C@H](O)[C@@H]5O)[C@@H](O)[C@H](O[C@H]5O[C@H](CO)[C@@H](O)[C@H](O)[C@@H]5O[C@H]5O[C@H](CO)[C@@H](O)[C@H](O)[C@@H]5O)[C@@H]4O)[C@@H](O)[C@H](O[C@H]4O[C@H](CO)[C@@H](O)[C@H](O)[C@@H]4O[C@H]4O[C@H](CO)[C@@H](O)[C@H](O)[C@@H]4O[C@H]4O[C@H](CO)[C@@H](O)[C@H](O)[C@@H]4O)[C@@H]3O)CC2)nn1)NC(=O)[C@H](CCCCN)NC(=O)[C@H](CC(C)C)NC(=O)[C@H](C)NC(=O)[C@H](C)NC(=O)[C@H](CCc1cn(C2CCC(OC3O[C@H](CO[C@H]4O[C@H](CO[C@H]5O[C@H](CO)[C@@H](O)[C@H](O)[C@@H]5O[C@H]5O[C@H](CO)[C@@H](O)[C@H](O)[C@@H]5O)[C@@H](O)[C@H](O[C@H]5O[C@H](CO)[C@@H](O)[C@H](O)[C@@H]5O[C@H]5O[C@H](CO)[C@@H](O)[C@H](O)[C@@H]5O)[C@@H]4O)[C@@H](O)[C@H](O[C@H]4O[C@H](CO)[C@@H](O)[C@H](O)[C@@H]4O[C@H]4O[C@H](CO)[C@@H](O)[C@H](O)[C@@H]4O[C@H]4O[C@H](CO)[C@@H](O)[C@H](O)[C@@H]4O)[C@@H]3O)CC2)nn1)NC(=O)[C@H](CCc1cn(C2CCC(OC3O[C@H](CO[C@H]4O[C@H](CO[C@H]5O[C@H](CO)[C@@H](O)[C@H](O)[C@@H]5O[C@H]5O[C@H](CO)[C@@H](O)[C@H](O)[C@@H]5O)[C@@H](O)[C@H](O[C@H]5O[C@H](CO)[C@@H](O)[C@H](O)[C@@H]5O[C@H]5O[C@H](CO)[C@@H](O)[C@H](O)[C@@H]5O)[C@@H]4O)[C@@H](O)[C@H](O[C@H]4O[C@H](CO)[C@@H](O)[C@H](O)[C@@H]4O[C@H]4O[C@H](CO)[C@@H](O)[C@H](O)[C@@H]4O[C@H]4O[C@H](CO)[C@@H](O)[C@H](O)[C@@H]4O)[C@@H]3O)CC2)nn1)NC=O)C(C)C)[C@@H](C)O)C(=O)N[C@@H](CC(C)C)C(=O)NCC(=O)N[C@@H](CO)C(=O)NCC(=O)N[C@@H](CO)C(=O)N[C@@H](CC(C)C)C(=O)NCC(=O)N[C@@H](Cc1c[nH]cn1)C(=O)N[C@@H](Cc1c[nH]cn1)C(=O)N[C@@H](Cc1c[nH]cn1)C(=O)N[C@@H](Cc1c[nH]cn1)C(=O)N[C@@H](Cc1c[nH]cn1)C(=O)N[C@@H](Cc1c[nH]cn1)C(=O)N[C@@H](CCCNC(=N)N)C(=O)N[C@@H](CC(=O)O)C(=O)N[C@@H](Cc1ccc(O)cc1)C(=O)N[C@@H](CCCCN)C(=O)N[C@@H](CC(=O)O)C(=O)N[C@@H](CC(=O)O)C(=O)N[C@@H](CC(=O)O)C(=O)N[C@@H](CC(=O)O)C(=O)N[C@@H](CCCCN)C(=O)O (stereo partly shown) [Clone 10F2-Δ11, XXAALKXQVTDXYALALFHRIL] | – | 70 | 890 | tight binding |
